Drawing on US20230295200A1 (REGENTS OF THE UNIVERSITY OF MICHIGAN, priority 2022, published 2023), this text covers Ki for 17 compounds.

pKi: −log10 of the molar value.

In the assay the target is T1, STAT6 protein (Homo sapiens, UniProt P42226).
T1 sequence (P42226 1-847): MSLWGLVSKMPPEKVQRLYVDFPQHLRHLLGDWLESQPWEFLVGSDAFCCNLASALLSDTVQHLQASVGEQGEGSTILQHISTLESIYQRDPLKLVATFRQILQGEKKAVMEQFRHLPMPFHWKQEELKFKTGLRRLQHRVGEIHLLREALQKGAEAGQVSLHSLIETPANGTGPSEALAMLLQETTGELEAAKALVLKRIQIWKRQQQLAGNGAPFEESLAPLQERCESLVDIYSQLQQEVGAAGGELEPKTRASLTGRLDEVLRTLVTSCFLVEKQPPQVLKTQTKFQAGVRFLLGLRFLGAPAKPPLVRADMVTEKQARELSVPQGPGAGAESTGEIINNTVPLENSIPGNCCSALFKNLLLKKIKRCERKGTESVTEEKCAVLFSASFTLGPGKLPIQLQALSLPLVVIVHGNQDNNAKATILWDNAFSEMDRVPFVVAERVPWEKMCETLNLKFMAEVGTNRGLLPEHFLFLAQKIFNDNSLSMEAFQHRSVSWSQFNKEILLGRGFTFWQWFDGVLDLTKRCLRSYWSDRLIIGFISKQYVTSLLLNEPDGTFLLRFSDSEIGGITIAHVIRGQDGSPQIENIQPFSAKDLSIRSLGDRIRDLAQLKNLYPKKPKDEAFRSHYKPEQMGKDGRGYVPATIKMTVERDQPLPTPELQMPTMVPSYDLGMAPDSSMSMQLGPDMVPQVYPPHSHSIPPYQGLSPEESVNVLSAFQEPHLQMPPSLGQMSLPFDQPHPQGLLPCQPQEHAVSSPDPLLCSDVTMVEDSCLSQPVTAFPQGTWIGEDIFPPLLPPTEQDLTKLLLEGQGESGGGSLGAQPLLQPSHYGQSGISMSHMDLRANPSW
The assay can be described thus: Fluorescence polarization (FP) binding assay, STAT6. Conditions: FP competition, 5 nM fluorescein-labeled tracer, 200 nM protein, PBS pH7.4; read-out: Binding STAT6. The gist of the method: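 Fluorescein-labelled tracer (5 nM) with 200 nM STAT5 and/or STAT6 protein in PBS pH 7.4, 0.01% BGG, 0.01% Tween-20, 2 mM DTT. Mixed 15 min, then equilibrated 1 h at room temperature; read by fluorescence polarization, constants from nonlinear curve fitting.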
On to `CC1(c2ccc(Cl)cc2)CN(C(=O)[C@@H]2Cc3ccccc3CN2C(=O)[C@@H](NC(=O)c2cc3cc(C(F)(F)P(=O)(O)O)ccc3s2)C(C)(C)C)CCO1` (stereo partly drawn) [Compound 235, ((2-(((2S)-1-((3S)-3-(2-(4-chlorophenyl)-2-methylmorpholine-4-carbonyl)-3,4-dihydroisoquinolin-2(1H)-yl)-3,3-dimethyl-1-oxobutan-2-yl)carbamoyl)benzo[b]thiophen-5-yl)difluoromethyl)phosphonic acid], for which the pKi is 5.00 to 6.00.
On to `CC1(c2ccc(F)cc2)CN(C(=O)[C@@H]2Cc3ccccc3CN2C(=O)[C@@H](NC(=O)c2cc3cc(C(F)(F)P(=O)(O)O)ccc3s2)C(C)(C)C)CCO1` (stereo partly drawn) [Compound 236, (difluoro(2-(((2S)-1-((3S)-3-(2-(4-fluorophenyl)-2-methylmorpholine-4-carbonyl)-3,4-dihydroisoquinolin-2(1H)-yl)-3,3-dimethyl-1-oxobutan-2-yl)carbamoyl)benzo[b]thiophen-5-yl)methyl)phosphonic acid], for which the pKi was 5.00 to 6.00.
For the compound `CC(C)(C)[C@H](NC(=O)c1cc2cc(C(F)(F)P(=O)(O)O)ccc2s1)C(=O)N1Cc2ccccc2C[C@H]1C(=O)N1CCOC(c2ccc(F)cc2F)C1` (stereo partly drawn) [Compound 237, ((2-(((2S)-1-((3S)-3-(2-(2,4-difluorophenyl)morpholine-4-carbonyl)-3,4-dihydroisoquinolin-2(1H)-yl)-3,3-dimethyl-1-oxobutan-2-yl)carbamoyl)benzo[b]thiophen-5-yl)difluoromethyl)phosphonic acid], the pKi is 6.00 to 7.00.
The result for `CC(C)(C)[C@H](NC(=O)c1cc2cc(C(F)(F)P(=O)(O)O)ccc2s1)C(=O)N1Cc2ccccc2C[C@H]1C(=O)N1CCOC(c2ccc(F)c(F)c2)C1` (stereo partly drawn) [Compound 238, ((2-(((2S)-1-((3S)-3-(2-(3,4-difluorophenyl)morpholine-4-carbonyl)-3,4-dihydroisoquinolin-2(1H)-yl)-3,3-dimethyl-1-oxobutan-2-yl)carbamoyl)benzo[b]thiophen-5-yl)difluoromethyl)phosphonic acid] reads 6.00 to 7.00; that for `CC(C)(C)[C@H](NC(=O)c1cc2cc(C(F)(F)P(=O)(O)O)ccc2s1)C(=O)N1Cc2ccccc2C[C@H]1C(=O)N1CCOC(c2ccc(F)c(Cl)c2)C1` (stereo partly drawn) [Compound 239, ((2-(((2S)-1-((3S)-3-(2-(3-chloro-4-fluorophenyl)morpholine-4-carbonyl)-3,4-dihydroisoquinolin-2(1H)-yl)-3,3-dimethyl-1-oxobutan-2-yl)carbamoyl)benzo[b]thiophen-5-yl)difluoromethyl)phosphonic acid], 5.00 to 6.00; that for `CC(C)(C)[C@H](NC(=O)c1cc2cc(C(F)(F)P(=O)(O)O)ccc2s1)C(=O)N1Cc2ccccc2C[C@H]1C(=O)N1CCOC(c2ccc(Cl)c(Cl)c2)C1` (stereo partly drawn) [Compound 240, ((2-(((2S)-1-((3S)-3-(2-(3,4-dichlorophenyl)morpholine-4-carbonyl)-3,4-dihydroisoquinolin-2(1H)-yl)-3,3-dimethyl-1-oxobutan-2-yl)carbamoyl)benzo[b]thiophen-5-yl)difluoromethyl)phosphonic acid], 6.00 to 7.00.
In the case of `Cc1cc(C2CN(C(=O)[C@@H]3Cc4ccccc4CN3C(=O)[C@@H](NC(=O)c3cc4cc(C(F)(F)P(=O)(O)O)ccc4s3)C(C)(C)C)CCO2)ccc1F` (stereo partly drawn) [Compound 241, (difluoro(2-(((2S)-1-((3S)-3-(2-(4-fluoro-3-methylphenyl)morpholine-4-carbonyl)-3,4-dihydroisoquinolin-2(1H)-yl)-3,3-dimethyl-1-oxobutan-2-yl)carbamoyl)benzo[b]thiophen-5-yl)methyl)phosphonic acid] it was 5.00 to 6.00; in that of `CC(C)(C)[C@H](NC(=O)c1cc2cc(C(F)(F)P(=O)(O)O)ccc2s1)C(=O)N1Cc2ccccc2C[C@H]1C(=O)N1CCOC(c2cc(Cl)cc(Cl)c2)C1` (stereo partly drawn) [Compound 242, ((2-(((2S)-1-((3S)-3-(2-(3,5-dichlorophenyl)morpholine-4-carbonyl)-3,4-dihydroisoquinolin-2(1H)-yl)-3,3-dimethyl-1-oxobutan-2-yl)carbamoyl)benzo[b]thiophen-5-yl)difluoromethyl)phosphonic acid], 6.00 to 7.00.
The result for `CC(C)(C)[C@H](NC(=O)c1cc2cc(C(F)(F)P(=O)(O)O)ccc2s1)C(=O)N1Cc2ccccc2C[C@H]1C(=O)N1CCOC(c2cc(F)c(Cl)cc2Cl)C1` (stereo partly drawn) [Compound 243, ((2-(((2S)-1-((3S)-3-(2-(2,4-dichloro-5-fluorophenyl)morpholine-4-carbonyl)-3,4-dihydroisoquinolin-2(1H)-yl)-3,3-dimethyl-1-oxobutan-2-yl)carbamoyl)benzo[b]thiophen-5-yl)difluoromethyl)phosphonic acid] reads 6.00 to 7.00.
Regarding `CC(C)(C)[C@H](NC(=O)c1cc2cc(C(F)(F)P(=O)(O)O)ccc2s1)C(=O)N1Cc2ccccc2C[C@H]1C(=O)N1CCCCC(c2ccccc2)C1` (stereo partly drawn) [Compound 244, ((2-(((2S)-3,3-dimethyl-1-oxo-1-((3S)-3-(3-phenylazepane-1-carbonyl)-3,4-dihydroisoquinolin-2(1H)-yl)butan-2-yl)carbamoyl)benzo[b]thiophen-5-yl)difluoromethyl)phosphonic acid], the pKi is 5.00 to 6.00.
For `CC(C)(C)[C@H](NC(=O)c1cc2cc(C(F)(F)P(=O)(O)O)ccc2s1)C(=O)N1Cc2ccccc2C[C@H]1C(=O)N1CCCC(c2cccc(F)c2)C1` (stereo partly drawn) [Compound 245, (difluoro(2-(((2S)-1-((3S)-3-(3-(3-fluorophenyl)piperidine-1-carbonyl)-3,4-dihydroisoquinolin-2(1H)-yl)-3,3-dimethyl-1-oxobutan-2-yl)carbamoyl)benzo[b]thiophen-5-yl)methyl)phosphonic acid], the pKi is 6.00 to 7.00.
In the case of `CC(C)(C)[C@H](NC(=O)c1cc2cc(C(F)(F)P(=O)(O)O)ccc2s1)C(=O)N1Cc2ccccc2C[C@H]1C(=O)N1CCCC(c2ccc(Cl)cc2)C1` (stereo partly drawn) [Compound 246, ((2-(((2S)-1-((3S)-3-(3-(4-chlorophenyl)piperidine-1-carbonyl)-3,4-dihydroisoquinolin-2(1H)-yl)-3,3-dimethyl-1-oxobutan-2-yl)carbamoyl)benzo[b]thiophen-5-yl)difluoromethyl)phosphonic acid] it was 6.00 to 7.00; in that of `CC(C)(C)[C@H](NC(=O)c1cc2cc(C(F)(F)P(=O)(O)O)ccc2s1)C(=O)N1CCC[C@H]1C(=O)N1CCOC(c2cc(F)cc(F)c2)C1` (stereo partly drawn) [Compound 265, ((2-(((2S)-1-((2S)-2-(2-(3,5-difluorophenyl)morpholine-4-carbonyl)pyrrolidin-1-yl)-3,3-dimethyl-1-oxobutan-2-yl)carbamoyl)benzo[b]thiophen-5-yl)difluoromethyl)phosphonic acid], 6.00 to 7.00; in that of `CC(C)(C)[C@H](NC(=O)c1cc2cc(C(F)(F)P(=O)(O)O)ccc2s1)C(=O)N1CCC[C@H]1C(=O)N1CC(C(=O)O)CC(c2ccccc2)C1` (stereo partly drawn) [Compound 266, 1-(((S)-2-(5-(difluoro(phosphono)methyl)benzo [b]thiophene-2-carboxamido)-3,3-dimethylbutanoyl)-L-prolyl)-5-phenylpiperidine-3-carboxylic acid], 5.00 to 6.00.
The result for `O=C(N[C@H](C(=O)N1CCC[C@H]1C(=O)N1CCO[C@H](c2ccccc2)C1)C1CCNCC1)c1cc2cc(C(F)(F)P(=O)(O)O)ccc2s1` [Compound 269, (difluoro(2-(((S)-2-oxo-2-((S)-2-((R)-2-phenylmorpholine-4-carbonyl)pyrrolidin-1-yl)-1-(piperidin-4-yl)ethyl)carbamoyl)benzo[b]thiophen-5-yl)methyl)phosphonic acid] reads 6.00 to 7.00; that for `O=C(N[C@@H](Cc1ccncc1)C(=O)N1CCC[C@H]1C(=O)N1CCO[C@H](c2ccccc2)C1)c1cc2cc(C(F)(F)P(=O)(O)O)ccc2s1` [Compound 270, (difluoro(2-(((S)-1-oxo-1-((S)-2-((R)-2-phenylmorpholine-4-carbonyl)pyrrolidin-1-yl)-3-(pyridin-4-yl)propan-2-yl)carbamoyl)benzo[b]thiophen-5-yl)methyl)phosphonic acid], 6.00 to 7.00.
`O=C(N[C@@H](Cc1cccnc1)C(=O)N1CCC[C@H]1C(=O)N1CCO[C@H](c2ccccc2)C1)c1cc2cc(C(F)(F)P(=O)(O)O)ccc2s1` [Compound 271, (difluoro(2-(((S)-1-oxo-1-((S)-2-((R)-2-phenylmorpholine-4-carbonyl)pyrrolidin-1-yl)-3-(pyridin-3-yl)propan-2-yl)carbamoyl)benzo[b]thiophen-5-yl)methyl)phosphonic acid]: the pKi is 6.00 to 7.00.
